{"source": "ChEMBL document CHEMBL3603836", "about": "“Hybrid pyrimidine alkynyls inhibit the clinically resistance related Bcr-Abl(T315I) mutant” (Bioorg Med Chem Lett, 2015)", "key": {"[1]": {"system": "Mus musculus", "test": "Toxicity in human K562 cells expressing wild type Bcr-Abl xenografted mouse assessed as change in body weight at 3.3 to 10 mg/kg, po qd for 16 days relative to control", "assay_type": "organism-based", "conditions": "in vivo, 384 h"}, "[2]": {"target": "Bcr/Abl fusion protein (Homo sapiens, UniProt P00519)", "assay_type": "protein assay", "description": "Inhibition of wild type Bcr-Abl (unknown origin) using Tyr2 peptide substrate after 2 hrs by FRET-based Z'-lyte assay"}, "[3]": {"target": "Bcr/Abl fusion protein (Homo sapiens, UniProt P00519, T315I)", "assay_type": "protein assay"}, "[4]": {"test": "Antiproliferative activity against mouse BA/F3 cells expressing wild type Bcr-Abl after 72 hrs by CCK-8 assay", "assay_type": "functional, cell-based", "conditions": "BaF3, 72 h"}, "[5]": {"system": "Tyrosine-protein kinase ABL1 (Mus musculus), P00520 [T315I]", "sequence (P00520 whole entry T315I)": "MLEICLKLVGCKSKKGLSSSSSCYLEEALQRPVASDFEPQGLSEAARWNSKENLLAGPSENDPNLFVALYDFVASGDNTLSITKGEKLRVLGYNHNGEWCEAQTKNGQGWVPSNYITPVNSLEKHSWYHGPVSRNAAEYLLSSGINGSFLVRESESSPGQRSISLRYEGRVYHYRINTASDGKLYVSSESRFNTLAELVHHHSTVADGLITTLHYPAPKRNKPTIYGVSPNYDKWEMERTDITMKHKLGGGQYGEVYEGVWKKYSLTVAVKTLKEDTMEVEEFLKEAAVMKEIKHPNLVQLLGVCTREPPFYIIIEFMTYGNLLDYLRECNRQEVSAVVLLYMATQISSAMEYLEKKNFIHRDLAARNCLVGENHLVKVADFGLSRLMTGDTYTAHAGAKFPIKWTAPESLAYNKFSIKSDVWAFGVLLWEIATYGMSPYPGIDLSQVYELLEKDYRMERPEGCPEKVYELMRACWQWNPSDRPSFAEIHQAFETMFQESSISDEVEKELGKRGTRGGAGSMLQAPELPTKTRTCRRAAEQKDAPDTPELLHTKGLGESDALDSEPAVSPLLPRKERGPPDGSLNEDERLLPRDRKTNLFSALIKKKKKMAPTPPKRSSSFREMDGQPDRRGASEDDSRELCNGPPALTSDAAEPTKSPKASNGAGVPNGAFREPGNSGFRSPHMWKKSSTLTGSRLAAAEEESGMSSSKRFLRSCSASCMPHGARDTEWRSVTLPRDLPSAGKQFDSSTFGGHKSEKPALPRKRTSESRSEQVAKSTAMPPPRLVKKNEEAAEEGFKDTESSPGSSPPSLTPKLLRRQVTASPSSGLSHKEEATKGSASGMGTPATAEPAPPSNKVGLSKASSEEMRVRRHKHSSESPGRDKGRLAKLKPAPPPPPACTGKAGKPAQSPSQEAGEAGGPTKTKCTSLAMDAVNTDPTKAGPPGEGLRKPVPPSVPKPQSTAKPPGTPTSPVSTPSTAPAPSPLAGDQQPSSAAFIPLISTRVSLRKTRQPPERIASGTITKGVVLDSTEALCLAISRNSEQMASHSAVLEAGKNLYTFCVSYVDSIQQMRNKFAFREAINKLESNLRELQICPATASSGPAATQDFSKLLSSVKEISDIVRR", "test": "Inhibition of Bcr-Abl T315I mutant in mouse BA/F3 cells assessed as total protein level of Bcr-Abl at 4 to 500 nM after 4 hrs by Western blot analysis", "assay_type": "cell-based", "conditions": "BaF3"}, "[6]": {"system": "K562", "test": "Cell cycle arrest in human K562 cells expressing wild type Bcr-Abl assessed as accumulation at G0/G1 phase at 0.8 nM after 24 hrs using propidium iodide staining by flow cytometry (reference value: 64.03%)", "assay_type": "functional"}, "[7]": {"system": "K562", "test": "Cell cycle arrest in human K562 cells expressing wild type Bcr-Abl assessed as accumulation at G0/G1 phase at 4 nM after 24 hrs using propidium iodide staining by flow cytometry (reference value: 64.03%)", "assay_type": "functional"}, "[8]": {"system": "K562", "test": "Cell cycle arrest in human K562 cells expressing wild type Bcr-Abl assessed as accumulation at G0/G1 phase at 100 nM after 24 hrs using propidium iodide staining by flow cytometry (reference value: 64.03%)", "assay_type": "functional"}, "[9]": {"system": "K562", "test": "Induction of apoptosis in human K562 cells expressing wild type Bcr-Abl assessed as late apoptotic cells at 0.8 nM after 24 hrs using annexin-V/7-AAD staining by FACS analysis (reference value: 2.1%)", "assay_type": "functional"}, "[10]": {"system": "K562", "test": "Induction of apoptosis in human K562 cells expressing wild type Bcr-Abl assessed as early apoptotic cells at 0.8 nM after 24 hrs using annexin-V/7-AAD staining by FACS analysis (reference value: 7.3%)", "assay_type": "functional"}, "[11]": {"system": "K562", "test": "Induction of apoptosis in human K562 cells expressing wild type Bcr-Abl assessed as late apoptotic cells at 4 nM after 24 hrs using annexin-V/7-AAD staining by FACS analysis (reference value: 2.1%)", "assay_type": "functional"}, "[12]": {"system": "K562", "test": "Induction of apoptosis in human K562 cells expressing wild type Bcr-Abl assessed as early apoptotic cells at 4 nM after 24 hrs using annexin-V/7-AAD staining by FACS analysis (reference value: 7.3%)", "assay_type": "functional"}, "[13]": {"system": "K562", "test": "Induction of apoptosis in human K562 cells expressing wild type Bcr-Abl assessed as late apoptotic cells at 20 nM after 24 hrs using annexin-V/7-AAD staining by FACS analysis (reference value: 2.1%)", "assay_type": "functional"}, "[14]": {"system": "K562", "test": "Induction of apoptosis in human K562 cells expressing wild type Bcr-Abl assessed as early apoptotic cells at 20 nM after 24 hrs using annexin-V/7-AAD staining by FACS analysis (reference value: 7.3%)", "assay_type": "functional"}, "[15]": {"system": "K562", "test": "Induction of apoptosis in human K562 cells expressing wild type Bcr-Abl assessed as late apoptotic cells at 100 nM after 24 hrs using annexin-V/7-AAD staining by FACS analysis (reference value: 2.1%)", "assay_type": "functional"}, "[16]": {"test": "Cell cycle arrest in mouse BA/F3 cells expressing Bcr-Abl T315I mutant assessed as accumulation at G0/G1 phase at 100 nM after 24 hrs using propidium iodide staining by flow cytometry (reference value: 51.92%)", "assay_type": "functional, cell-based", "conditions": "BaF3"}, "[17]": {"test": "Cell cycle arrest in mouse BA/F3 cells expressing Bcr-Abl T315I mutant assessed as accumulation at G0/G1 phase at 500 nM after 24 hrs using propidium iodide staining by flow cytometry (reference value: 51.92%)", "assay_type": "functional, cell-based", "conditions": "BaF3"}, "[18]": {"system": "BaF3", "test": "Induction of apoptosis in mouse BA/F3 cells expressing Bcr-Abl T315I mutant assessed as late apoptotic cells at 4 nM after 24 hrs using annexin-V/7-AAD staining by FACS analysis (reference value: 2.2%)", "assay_type": "functional"}, "[19]": {"system": "BaF3", "test": "Induction of apoptosis in mouse BA/F3 cells expressing Bcr-Abl T315I mutant assessed as early apoptotic cells at 4 nM after 24 hrs using annexin-V/7-AAD staining by FACS analysis (reference value: 4.6%)", "assay_type": "functional"}, "[20]": {"system": "BaF3", "test": "Induction of apoptosis in mouse BA/F3 cells expressing Bcr-Abl T315I mutant assessed as late apoptotic cells at 20 nM after 24 hrs using annexin-V/7-AAD staining by FACS analysis (reference value: 2.2%)", "assay_type": "functional"}, "[21]": {"system": "BaF3", "test": "Induction of apoptosis in mouse BA/F3 cells expressing Bcr-Abl T315I mutant assessed as early apoptotic cells at 20 nM after 24 hrs using annexin-V/7-AAD staining by FACS analysis (reference value: 4.6%)", "assay_type": "functional"}, "[22]": {"system": "BaF3", "test": "Induction of apoptosis in mouse BA/F3 cells expressing Bcr-Abl T315I mutant assessed as late apoptotic cells at 100 nM after 24 hrs using annexin-V/7-AAD staining by FACS analysis (reference value: 2.2%)", "assay_type": "functional"}, "[23]": {"system": "BaF3", "test": "Induction of apoptosis in mouse BA/F3 cells expressing Bcr-Abl T315I mutant assessed as late apoptotic cells at 500 nM after 24 hrs using annexin-V/7-AAD staining by FACS analysis (reference value: 2.2%)", "assay_type": "functional"}, "[24]": {"system": "K562", "test": "Induction of apoptosis in human K562 cells expressing wild type Bcr-Abl assessed as early apoptotic cells after 24 hrs using annexin-V/7-AAD staining by FACS analysis", "assay_type": "functional, cell-based"}, "[25]": {"test": "Cell cycle arrest in mouse BA/F3 cells expressing Bcr-Abl T315I mutant assessed as accumulation at G0/G1 phase after 24 hrs using propidium iodide staining by flow cytometry", "assay_type": "functional, cell-based", "conditions": "BaF3"}, "[26]": {"system": "BaF3", "test": "Induction of apoptosis in mouse BA/F3 cells expressing Bcr-Abl T315I mutant assessed as early apoptotic cells after 24 hrs using annexin-V/7-AAD staining by FACS analysis", "assay_type": "functional, cell-based"}, "[27]": {"system": "Rattus norvegicus", "test": "AUC (0 to infinity) in Sprague-Dawley rat at 25 mg/kg, po", "assay_type": "ADME, organism-based", "design": "dose 25 mg/kg, time infinity, route oral", "conditions": "in vivo"}, "[28]": {"system": "K562", "test": "Antitumor activity against human K562 cells expressing wild type Bcr-Abl xenografted in po dosed mouse assessed as tumor growth inhibition administered qd for 16 days", "assay_type": "functional, organism-based"}, "[29]": {"system": "K562", "test": "Antitumor activity against human K562 cells expressing wild type Bcr-Abl xenografted in mouse assessed as complete eradication of tumor at 10 mg/kg, po qd for 8 days", "assay_type": "functional, organism-based"}, "[30]": {"system": "K562", "test": "Antitumor activity against human K562 cells expressing wild type Bcr-Abl xenografted in mouse assessed as sign of tumor recurrence at 10 mg/kg, po qd for 16 days measured after 7 days of last dose", "assay_type": "functional, organism-based"}, "[31]": {"system": "BaF3", "test": "Antitumor activity against mouse BA/F3 cells expressing Bcr-Abl T315I mutant allografted in mouse assessed as tumor growth inhibition at 10 mg/kg, qd for 16 days", "assay_type": "functional, organism-based"}, "[32]": {"system": "Mus musculus", "test": "Toxicity in human K562 cells expressing wild type Bcr-Abl xenografted mouse assessed as mortality at 3.3 to 10 mg/kg, po qd for 16 days", "assay_type": "organism-based", "conditions": "in vivo, 384 h"}, "[33]": {"system": "K562", "test": "cells", "conditions": "Homo sapiens, K562, 72 h", "description": "Antiproliferative activity against human K562 cells expressing wild type Bcr-Abl after 72 hrs by CCK-8 assay"}}, "note": "Calls of active or inactive are those of the source. The calls are words filed in the database; no cut-off is given here.", "data": [{"smiles": "Cc1cn(-c2cc(NC(=O)c3ccc(C)c(C#Cc4cnc(NC5CC5)nc4)c3)cc(C(F)(F)F)c2)cn1", "values": [{"measurement": "Activity", "setting": "[1]", "result": "< 5", "unit": "%"}, {"measurement": "IC50", "setting": "[2]", "result": 5, "unit": "nM"}, {"measurement": "IC50", "setting": "[3]", "result": 9, "unit": "nM"}, {"measurement": "IC50", "setting": "[4]", "result": 2, "unit": "nM"}, {"measurement": "inhibition", "setting": "[5]", "result": "inactive"}, {"measurement": "Activity", "setting": "[6]", "result": 67.61, "unit": "%"}, {"measurement": "Activity", "setting": "[7]", "result": 85.99, "unit": "%"}, {"measurement": "Activity", "setting": "[8]", "result": 91.44, "unit": "%"}, {"measurement": "Activity", "setting": "[9]", "result": 1.7, "unit": "%"}, {"measurement": "Activity", "setting": "[10]", "result": 7.1, "unit": "%"}, {"measurement": "Activity", "setting": "[11]", "result": 2, "unit": "%"}, {"measurement": "Activity", "setting": "[12]", "result": 6.7, "unit": "%"}, {"measurement": "Activity", "setting": "[13]", "result": 2.5, "unit": "%"}, {"measurement": "Activity", "setting": "[14]", "result": 14.2, "unit": "%"}, {"measurement": "Activity", "setting": "[15]", "result": 9, "unit": "%"}, {"measurement": "Activity", "setting": "[16]", "result": 67.2, "unit": "%"}, {"measurement": "Activity", "setting": "[17]", "result": 70.2, "unit": "%"}, {"measurement": "Activity", "setting": "[18]", "result": 3.3, "unit": "%"}, {"measurement": "Activity", "setting": "[19]", "result": 5.8, "unit": "%"}, {"measurement": "Activity", "setting": "[20]", "result": 4.1, "unit": "%"}, {"measurement": "Activity", "setting": "[21]", "result": 6.6, "unit": "%"}, {"measurement": "Activity", "setting": "[22]", "result": 4, "unit": "%"}, {"measurement": "Activity", "setting": "[23]", "result": 4.3, "unit": "%"}, {"measurement": "Activity", "setting": "[24]", "result": "Dose-dependent effect"}, {"measurement": "Activity", "setting": "[25]", "result": "Dose-dependent effect"}, {"measurement": "Activity", "setting": "[26]", "result": "Dose-dependent effect"}, {"measurement": "AUC", "setting": "[27]", "result": 251684, "unit": "µg/L/h"}, {"measurement": "growth inhibition (GI)", "setting": "[28]", "result": "Dose-dependent effect"}, {"measurement": "Activity", "setting": "[29]", "result": "Active"}, {"measurement": "Activity", "setting": "[30]", "result": "inactive"}, {"measurement": "Activity", "setting": "[31]", "result": "inactive"}, {"measurement": "Activity", "setting": "[32]", "result": "Non-toxic"}, {"measurement": "IC50", "setting": "[33]", "result": 2, "unit": "nM"}]}]}
